Source: US5916774A, “D-aminoacylase” (Daicel Chemical Industries, Ltd., priority 1997, dated 1999)
Where two headings read alike, the source gives them in different places.

Tests used:
[1] = tested on: Amycolatopsis orientalis IFO 12806; assay: Induction of D-aminoacylase production by inducers in culture; assay type: cell-based; settings: for Specific activity / Total activity / Activity: crude enzyme solution of cells cultured with 0.1% inducer in ISP-2 medium, 30° C., 72 h; for Activity: 20 mM N-acetyl-D-methionine, pH 7.5, 10 min
Description: This microbial strain was cultured in ISP-2 liquid medium as used in Example 1 supplemented with or without N-acetyl-DL-methionine or DL-valine (Kanto Kagaku) (0.1% each) as the enzyme inducer with shaking at 160 rpm at 30° C. for 72 h.
After the incubation, the culture was centrifuged at 8000 rpm (7000×g) for 20 min with a Hitachi Koki refrigerated centrifuge to collect microbial cells. The cells were washed with 50 mM Tris-HCl buffer (pH 7.5) and then centrifuged again with the same centrifuge to harvest the cells to be used in the following processes. The cells were stored at -20° C.
The stored cells were suspended in 20 ml of 50 mM Tris-HCl (pH 7.5), ultrasonicated at 190 W for 10 min, and centrifuged with a Hitachi Koki refrigerated centrifuge at 14,000 rpm (20,000×g) for 20 min. The supernatant thus obtained was used as the crude enzyme solution.
The enzymatic reaction was performed in a total volume of 1.0 ml of a reaction system containing 20 mM N-acetyl-D-methionine, 50 mM Tris-HCl buffer (pH 7.5), 1 mM CoCl2, and 100 μl of the enzyme solution at 30° C. for 10 min. The reaction was terminated by adding a TCA reaction terminating solution.

[2] = tested on: D-aminoacylase derived from Amycolatopsis orientalis IFO 12806; assay: Influences of various metallic salts and reagents on D-aminoacylase activity; assay type: biochemical
Description: (§1) The enzyme activity was assayed according to TNBS method [Tokuyama, S., Hatano, K. and Takahashi, T., Biosci. Biotech. Biochem. 58, pp24 (1994)]. That is, a sample solution containing amino acid was added to 0.5 ml of the solution (C) (0.1M Na2 B4 O7), and brought up to a volume of 1.0 ml. To this mixture was added […] of 0.11M TNBS solution, and the resulting mixture was quickly mixed. Five min thereafter, absorption at 420 nm was measured.
In Table 5, the term "PCMB" means p-chloromercuribenzoic acid.

[3] = tested on: D-aminoacylase derived from Amycolatopsis orientalis IFO 12806; assay: Substrate specificity of D-aminoacylase; assay type: biochemical; settings: 20 mM substrate, 3 h; for Action of the enzyme on the substrate: pH 7.5, 30° C.; for Specific activity (%): N-acetyl-D-methionine taken as 100%, 50 mM Tris-HCl pH 7.5, 30° C.
Description: The enzymatic reaction was carried out in a total volume of 1.0 ml of a reaction system containing 20 mM N-acetyl-D-methionine (Sigma), 50 mM Tris-HCl buffer (pH 7.5), 1 mM CoCl2, and 100 μl of the enzyme solution at 30° C. for 60 min. The reaction was terminated by adding 0.5 ml of a TCA reaction terminating solution according to Tsai et al. (containing 0.11M trichloroacetic acid, 0.22M sodium acetate, and 0.33M acetic acid).
as §1
Substrate specificity of this enzyme was compared to, taking substrate specificity for N-acetyl-D-methionine as 100%, N-acetyl-D-valine, N-acetyl-D-phenylalanine, N-acetyl-D-leucine, N-acetyl-D-tryptophan, N-acetyl-D-asparagine, N-acetyl-L-methionine, N-acetyl-D-leucine, and N-acetyl-L-valine. The enzyme activity was assayed in 50 mM Tris-HCl buffer (pH 7.5) containing 100 μl of the enzyme solution and 20 mM of each substrate (total volume of 1.0 ml) at 30° C. for 3 h.

[4] = metallic salt 1 mM, pH 7.5, 30° C., 60 min, no addition 0.25
[5] = metallic salt 10 mM, no addition = 100
[6] = metallic salt 10 mM, pH 7.5, 30° C., 60 min, no addition 0.25
[7] = metallic salt 1 mM, no addition = 100
[8] = reagent 1 mM, no addition = 100
[9] = reagent 1 mM, pH 7.5, 30° C., 60 min, no addition 0.22
[10] = reagent 10 mM, no addition = 100
[11] = reagent 10 mM, pH 7.5, 30° C., 60 min, no addition 0.22

Row | SMILES | Methionine produced, concentration 1 mM [2, 4] [mM] | Specific activity (%), concentration 10 mM [2, 5] [%] | Methionine produced, concentration 10 mM [2, 6] [mM] | Specific activity (%), concentration 1 mM [2, 7] [%] | Action of the enzyme on the substrate [3] | Specific activity (%) [3] [%] | also measured
1 | CC(C)C(N)C(=O)O (racemic) [DL-valine] |  |  |  |  |  |  | Induction of D-aminoacylase ([1]; DL-valine compared with N-acetyl-DL-methionine as inducer): induced more strongly; Specific activity [1]: 144.0 mU/mg; Total activity [1]: 36.0 U; Activity [1]: 3.9 U/ml
2 | CSCCC(NC(C)=O)C(=O)O (racemic) [N-acetyl-DL-methionine] |  |  |  |  |  |  | Specific activity [1]: 36.0 mU/mg; Total activity [1]: 5.1 U; Activity [1]: 1.6 U/ml
3 | [Ba+2].[Cl-].[Cl-] [Ba^2+ (BaCl2), BaCl2] | 0.19 | 176 | 0.44 |  |  |  | 
4 | [Ca+2].[Cl-].[Cl-] [Ca^2+ (CaCl2), CaCl2] | 0.45 | 208 | 0.52 | 180 |  |  | Effect on enzyme activity ([2]; 1 mM): significantly promoted; Effect on enzyme activity ([2]; 10 mM): did not inhibit
5 | [Cl-].[Cl-].[Co+2] [Co^2+ (CoCl2), CoCl2] | 0.52 | 108 | 0.27 | 208 |  |  | Effect on enzyme activity ([2]; 1 mM): significantly promoted; Effect on enzyme activity ([2]; 10 mM): did not do so
6 | [Cl][Cu][Cl] [Cu^2+ (CuCl2), CuCl2] | 0 | 0 | 0 | 0 |  |  | Effect on enzyme activity ([2]; concentration not given): inhibited
7 | O=C(O)CN(CCN(CC(=O)O)CC(=O)O)CC(=O)O [EDTA.2Na, reference compound] |  |  |  |  |  |  | Effect on enzyme activity [2]: inhibited; Specific activity (%), concentration 1 mM [2]: 0%; Specific activity (%), concentration 10 mM [2]: 0%; Methionine produced, concentration 1 mM ([2]; pH 7.5): 0 mM; Methionine produced, concentration 10 mM ([2]; pH 7.5): 0 mM
8 | [Cl][Fe][Cl] [F^e2+ (FeCl2), FeCl2] | 0.13 | 0 | 0 | 52 |  |  | 
9 | [Cl][Hg][Cl] [Hg^2+ (HgCl2), HgCl2] | 0 | 0 | 0 | 0 |  |  | Effect on enzyme activity ([2]; concentration not given): inhibited
10 | [Cl-].[K+] [K^+ (KCl), KCl] | 0.13 | 84 | 0.21 | 52 |  |  | 
11 | [Cl-].[Cl-].[Mg+2] [Mg^2+ (MgCl2), MgCl2] | 0.32 | 92 | 0.32 | 128 |  |  | 
12 | [Cl][Mn][Cl] [Mn^2+ (MnCl2), MnCl2] | 0.24 | 0 | 0 | 96 |  |  | 
13 | CC(=O)N[C@H](C)C(=O)O [N-acetyl-D-alanine] |  |  |  |  | acted somewhat | 16 | 
14 | CC(=O)N[C@H](CC(N)=O)C(=O)O [N-acetyl-D-asparagine] |  |  |  |  | acted somewhat | 19 | 
15 | CC(=O)N[C@H](CC(C)C)C(=O)O [N-acetyl-D-leucine] |  |  |  |  | acted well | 78 | 
16 | CSCC[C@@H](NC(C)=O)C(=O)O [N-acetyl-D-methionine] |  |  |  |  | acted well | 100 | 
17 | CC(=O)N[C@H](Cc1ccccc1)C(=O)O [N-acetyl-D-phenylalanine] |  |  |  |  | acted somewhat | 36 | 
18 | CC(=O)N[C@H](Cc1c[nH]c2ccccc12)C(=O)O [N-acetyl-D-tryptophan] |  |  |  |  | acted somewhat | 54 | 
19 | CC(=O)N[C@@H](C(=O)O)C(C)C [N-acetyl-D-valine] |  |  |  |  |  | 33 | 
20 | CC(=O)N[C@@H](CC(C)C)C(=O)O [N-acetyl-L-leucine] |  |  |  |  | did not act | 0 | 
21 | CSCC[C@H](NC(C)=O)C(=O)O [N-acetyl-L-methionine] |  |  |  |  | did not act | 0 | 
22 | CC(=O)N[C@H](C(=O)O)C(C)C [N-acetyl-L-valine] |  |  |  |  | did not act | 0 | 
23 | CCN1C(=O)C=CC1=O [N-ethyl-maleimide, reference compound] |  |  |  |  |  |  | Specific activity (%), concentration 1 mM [2, 8]: 45%; Methionine produced, concentration 1 mM [2, 9]: 0.1 mM; Specific activity (%), concentration 10 mM [2, 10]: 0%; Methionine produced, concentration 10 mM [2, 11]: 0 mM
24 | [Cl-].[Na+] [Na^+ (NaCl), NaCl] |  |  |  |  |  |  | Specific activity (%), concentration 1 mM [2]: 84%; Specific activity (%), concentration 10 mM [2]: 152%; Methionine produced, concentration 1 mM ([2]; pH 7.5): 0.21 mM; Methionine produced, concentration 10 mM ([2]; pH 7.5): 0.36 mM
25 | [Cl][Ni][Cl] [Ni^2+ (NiCl2), NiCl2] | 0.12 | 68 | 0.17 | 48 |  |  | 
26 | O=C(O)c1cc[c]([Hg][Cl])cc1 [PCMB, p-chloromercuribenzoic acid, reference compound] |  |  |  |  |  |  | Effect on enzyme activity ([2]; concentration not given): inhibited; Specific activity (%), concentration 1 mM [2, 8]: 0%; Methionine produced, concentration 1 mM [2, 9]: 0 mM; Specific activity (%), concentration 10 mM [2, 10]: 0%; Methionine produced, concentration 10 mM [2, 11]: 0 mM
27 | [Cl-].[Cl-].[Zn+2] [Zn^2+ (ZnCl2), ZnCl2] | 0 | 0 | 0 | 0 |  |  | 
28 | OC(CS)C(O)CS (stereo not drawn) [dothiothreito, reference compound] |  |  |  |  |  |  | Specific activity (%), concentration 1 mM [2, 8]: 77%; Methionine produced, concentration 1 mM [2, 9]: 0.17 mM; Specific activity (%), concentration 10 mM [2, 10]: 68%; Methionine produced, concentration 10 mM [2, 11]: 0.15 mM
29 | O=C(O)CI [iodoactate, iodoacetate, reference compound] |  |  |  |  |  |  | Effect on enzyme activity [2]: inhibited; Specific activity (%), concentration 1 mM [2]: 64%; Specific activity (%), concentration 10 mM [2]: 50%; Methionine produced, concentration 1 mM ([2]; pH 7.5): 0.14 mM; Methionine produced, concentration 10 mM ([2]; pH 7.5): 0.11 mM
